Values belong to the compound of their own block, whether it stands above or below them.
System: 521955-158-R2-J5-PDC complex spheroid growth, % test/control
Assay: Anticancer human tumor 521955-158-R2-J5-PDC patient-derived pancreatic carcinoma cell line growth inhibition [Asc]
Details: for IC50: curve of first compound; for viability, T/C: stronger effect = lower value
Method in brief: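 Concentration series start at each agent's clinical Cmax, or at 10 microM when none is established, and drop in half-log steps; agents are applied alone or together to complex spheroids built with HUVEC and hMSC.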

[1] = second compound 0.1 µM, first compound 0.0316 µM
[2] = second compound 0.1 µM, first compound 0.1 µM
[3] = second compound 0.1 µM, first compound 0.316 µM
[4] = second compound 0.1 µM, first compound 1 µM
[5] = second compound 0.1 µM, first compound 3.16 µM
[6] = second compound 0.1 µM, first compound 10 µM
[7] = second compound 0.316 µM, first compound 0.0316 µM
[8] = second compound 0.316 µM, first compound 0.1 µM
[9] = second compound 0.316 µM, first compound 0.316 µM
[10] = second compound 0.316 µM, first compound 1 µM
[11] = second compound 0.316 µM, first compound 3.16 µM
[12] = second compound 0.316 µM, first compound 10 µM
[13] = second compound 1 µM, first compound 0.0316 µM
[14] = second compound 1 µM, first compound 0.1 µM
[15] = second compound 1 µM, first compound 0.316 µM
[16] = second compound 1 µM, first compound 1 µM
[17] = second compound 1 µM, first compound 3.16 µM
[18] = second compound 1 µM, first compound 10 µM
[19] = second compound 3.16 µM, first compound 0.0316 µM
[20] = second compound 3.16 µM, first compound 0.1 µM
[21] = second compound 3.16 µM, first compound 0.316 µM
[22] = second compound 3.16 µM, first compound 1 µM
[23] = second compound 3.16 µM, first compound 3.16 µM
[24] = second compound 3.16 µM, first compound 10 µM
[25] = second compound 10 µM, first compound 0.0316 µM
[26] = second compound 10 µM, first compound 0.1 µM
[27] = second compound 10 µM, first compound 0.316 µM
[28] = second compound 10 µM, first compound 1 µM
[29] = second compound 10 µM, first compound 3.16 µM
[30] = second compound 10 µM, first compound 10 µM
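Also: spheroids exposed to agents for 7 days before readout.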
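For viability, T/C in this document: 100% = DMSO vehicle control viability.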

IC50 (second compound 0.03 µM): 0.00456 µM
IC50 (second compound 0.0949 µM): 0.00908 µM
IC50 (second compound 0.3 µM): 0.00714 µM
IC50 (second compound 0.949 µM): 0.0106 µM
IC50 (second compound 3 µM): 0.0302 µM
Structure (SMILES): COc1c(OCCCN2CCOCC2)ccc2c3n(c(=NC(=O)c4cnc(N)nc4)nc12)CCN3 + CCN1C(C(=O)NC23CCC(C(=O)O)(CC2)CC3)C(c2cccc(Cl)c2F)C2(C(=O)Nc3cc(Cl)ccc32)C12CCCCC2
viability, T/C (second compound 0.03 µM, first compound 0.00316 µM): 53.5%
viability, T/C (second compound 0.03 µM, first compound 0.01 µM): 43.2%
viability, T/C (second compound 0.03 µM, first compound 0.0316 µM): 34.5%
viability, T/C (second compound 0.03 µM, first compound 0.1 µM): 30.3%
viability, T/C (second compound 0.03 µM, first compound 0.316 µM): 24.3%
viability, T/C (second compound 0.03 µM, first compound 1 µM): 17.3%
viability, T/C (second compound 0.0949 µM, first compound 0.00316 µM): 61.1%
viability, T/C (second compound 0.0949 µM, first compound 0.01 µM): 47.8%
viability, T/C (second compound 0.0949 µM, first compound 0.0316 µM): 38.2%
viability, T/C (second compound 0.0949 µM, first compound 0.1 µM): 30.3%
viability, T/C (second compound 0.0949 µM, first compound 0.316 µM): 19%
viability, T/C (second compound 0.0949 µM, first compound 1 µM): 15.2%
viability, T/C (second compound 0.3 µM, first compound 0.00316 µM): 60.2%
viability, T/C (second compound 0.3 µM, first compound 0.01 µM): 40.4%
viability, T/C (second compound 0.3 µM, first compound 0.0316 µM): 43.3%
viability, T/C (second compound 0.3 µM, first compound 0.1 µM): 31%
viability, T/C (second compound 0.3 µM, first compound 0.316 µM): 24.2%
viability, T/C (second compound 0.3 µM, first compound 1 µM): 23.1%
viability, T/C (second compound 0.949 µM, first compound 0.00316 µM): 71.6%
viability, T/C (second compound 0.949 µM, first compound 0.01 µM): 44.7%
viability, T/C (second compound 0.949 µM, first compound 0.0316 µM): 40.5%
viability, T/C (second compound 0.949 µM, first compound 0.1 µM): 31.5%
viability, T/C (second compound 0.949 µM, first compound 0.316 µM): 23.2%
viability, T/C (second compound 0.949 µM, first compound 1 µM): 15.8%
viability, T/C (second compound 3 µM, first compound 0.00316 µM): 93.6%
viability, T/C (second compound 3 µM, first compound 0.01 µM): 74.2%
viability, T/C (second compound 3 µM, first compound 0.0316 µM): 43.5%
viability, T/C (second compound 3 µM, first compound 0.1 µM): 37.3%
viability, T/C (second compound 3 µM, first compound 0.316 µM): 22.5%
viability, T/C (second compound 3 µM, first compound 1 µM): 16.7%

IC50 (second compound 0.1 µM): > 3 µM
IC50 (second compound 0.316 µM): > 3 µM
IC50 (second compound 1 µM): > 3 µM
IC50 (second compound 3.16 µM): > 3 µM
IC50 (second compound 10 µM): > 3 µM
Structure (SMILES): CCN1C(C(=O)NC23CCC(C(=O)O)(CC2)CC3)C(c2cccc(Cl)c2F)C2(C(=O)Nc3cc(Cl)ccc32)C12CCCCC2 (stereo not given) + Cc1c(S(C)(=O)=O)c(-c2cc(F)cc(N3CCN(c4ccc(NS(=O)(=O)c5ccc(NC(CCN6CCC(C(=O)OCCCP(=O)(O)O)CC6)CSc6ccccc6)c(S(=O)(=O)C(F)(F)F)c5)cc4)CC3)c2)c(-c2ccc(Cl)cc2)n1C(C)C
viability, T/C (second compound 0.1 µM, first compound 0.00949 µM): 70.7%
viability, T/C (second compound 0.1 µM, first compound 0.03 µM): 80.8%
viability, T/C (second compound 0.1 µM, first compound 0.0949 µM): 54.6%
viability, T/C (second compound 0.1 µM, first compound 0.3 µM): 95%
viability, T/C (second compound 0.1 µM, first compound 0.949 µM): 76.5%
viability, T/C (second compound 0.1 µM, first compound 3 µM): 92.6%
viability, T/C (second compound 0.316 µM, first compound 0.00949 µM): 73.3%
viability, T/C (second compound 0.316 µM, first compound 0.03 µM): 90.4%
viability, T/C (second compound 0.316 µM, first compound 0.0949 µM): 61.1%
viability, T/C (second compound 0.316 µM, first compound 0.3 µM): 72.8%
viability, T/C (second compound 0.316 µM, first compound 0.949 µM): 76%
viability, T/C (second compound 0.316 µM, first compound 3 µM): 89.6%
viability, T/C (second compound 1 µM, first compound 0.00949 µM): 66.2%
viability, T/C (second compound 1 µM, first compound 0.03 µM): 91%
viability, T/C (second compound 1 µM, first compound 0.0949 µM): 69.4%
viability, T/C (second compound 1 µM, first compound 0.3 µM): 74.1%
viability, T/C (second compound 1 µM, first compound 0.949 µM): 67.7%
viability, T/C (second compound 1 µM, first compound 3 µM): 64.5%
viability, T/C (second compound 3.16 µM, first compound 0.00949 µM): 111%
viability, T/C (second compound 3.16 µM, first compound 0.03 µM): 91.7%
viability, T/C (second compound 3.16 µM, first compound 0.0949 µM): 86.1%
viability, T/C (second compound 3.16 µM, first compound 0.3 µM): 100%
viability, T/C (second compound 3.16 µM, first compound 0.949 µM): 77%
viability, T/C (second compound 3.16 µM, first compound 3 µM): 76.7%
viability, T/C (second compound 10 µM, first compound 0.00949 µM): 151%
viability, T/C (second compound 10 µM, first compound 0.03 µM): 153%
viability, T/C (second compound 10 µM, first compound 0.0949 µM): 166%
viability, T/C (second compound 10 µM, first compound 0.3 µM): 169%
viability, T/C (second compound 10 µM, first compound 0.949 µM): 107%
viability, T/C (second compound 10 µM, first compound 3 µM): 112%

IC50 (second compound 0.1 µM): > 10 µM
IC50 (second compound 0.316 µM): > 10 µM
IC50 (second compound 1 µM): > 10 µM
IC50 (second compound 3.16 µM): > 10 µM
IC50 (second compound 10 µM): > 10 µM
Structure (SMILES): C=CC(=O)N1CCN(c2nc(=O)n(-c3c(C)ccnc3C(C)C)c3nc(-c4c(O)cccc4F)c(F)cc23)C(C)C1 (stereo not given) + Cc1c(S(C)(=O)=O)c(-c2cc(F)cc(N3CCN(c4ccc(NS(=O)(=O)c5ccc(NC(CCN6CCC(C(=O)OCCCP(=O)(O)O)CC6)CSc6ccccc6)c(S(=O)(=O)C(F)(F)F)c5)cc4)CC3)c2)c(-c2ccc(Cl)cc2)n1C(C)C
viability, T/C [1]: 77.7%
viability, T/C [2]: 87.5%
viability, T/C [3]: 64.9%
viability, T/C [4]: 94.5%
viability, T/C [5]: 107%
viability, T/C [6]: 77.5%
viability, T/C [7]: 80.6%
viability, T/C [8]: 72.2%
viability, T/C [9]: 84.8%
viability, T/C [10]: 112%
viability, T/C [11]: 111%
viability, T/C [12]: 83.7%
viability, T/C [13]: 69.5%
viability, T/C [14]: 72.3%
viability, T/C [15]: 85.8%
viability, T/C [16]: 95.7%
viability, T/C [17]: 71.8%
viability, T/C [18]: 81.7%
viability, T/C [19]: 73.7%
viability, T/C [20]: 97.8%
viability, T/C [21]: 83.5%
viability, T/C [22]: 86.5%
viability, T/C [23]: 103%
viability, T/C [24]: 80.3%
viability, T/C [25]: 151%
viability, T/C [26]: 176%
viability, T/C [27]: 167%
viability, T/C [28]: 112%
viability, T/C [29]: 123%
viability, T/C [30]: 98.4%

IC50 (second compound 0.1 µM): 5.69 µM
IC50 (second compound 0.316 µM): > 10 µM
IC50 (second compound 1 µM): 0.835 µM
IC50 (second compound 3.16 µM): > 10 µM
IC50 (second compound 10 µM): > 10 µM
Structure (SMILES): O=C(c1cc(Cc2n[nH]c(=O)c3ccccc23)ccc1F)N1CCN(C(=O)C2CC2)CC1 + Cc1c(S(C)(=O)=O)c(-c2cc(F)cc(N3CCN(c4ccc(NS(=O)(=O)c5ccc(NC(CCN6CCC(C(=O)OCCCP(=O)(O)O)CC6)CSc6ccccc6)c(S(=O)(=O)C(F)(F)F)c5)cc4)CC3)c2)c(-c2ccc(Cl)cc2)n1C(C)C
viability, T/C [1]: 74.6%
viability, T/C [2]: 73.8%
viability, T/C [3]: 66.1%
viability, T/C [4]: 68.3%
viability, T/C [5]: 59%
viability, T/C [6]: 41.4%
viability, T/C [7]: 51.4%
viability, T/C [8]: 55.3%
viability, T/C [9]: 61.4%
viability, T/C [10]: 68.4%
viability, T/C [11]: 70.1%
viability, T/C [12]: 63.2%
viability, T/C [13]: 68.5%
viability, T/C [14]: 88.3%
viability, T/C [15]: 63.4%
viability, T/C [16]: 45.6%
viability, T/C [17]: 52.6%
viability, T/C [18]: 44.4%
viability, T/C [19]: 71.5%
viability, T/C [20]: 50.3%
viability, T/C [21]: 95.8%
viability, T/C [22]: 70.2%
viability, T/C [23]: 72.9%
viability, T/C [24]: 49.8%
viability, T/C [25]: 103%
viability, T/C [26]: 172%
viability, T/C [27]: 117%
viability, T/C [28]: 139%
viability, T/C [29]: 102%
viability, T/C [30]: 99.9%
